The values that follow are results of earlier work, collected in patent US20070293700A1, “Process for the Preparation of Gabapentin” (Zambon Group S.P.A., priority 2004, published 2007).

Read-outs that look alike come from different tables or passages of the source.

For series [1] the following is noted: pH at which the isoelectric point is reached.

As to `NCC1(CC(=O)O)CCCCC1` [gabapentin, 1-(aminomethyl)-cyclohexaneacetic acid], the solubility in water result is reported as “about 8.5%” (0° C.) and ~11% (temperature of 20° C.). For the same compound, the “isoelectric point (pH)” value in series [1] is reported as 7.14.
